According to US10266609B2, “Immunomodulating beta-1,6-D-glucans” (Innate Biotherapeutics, LLC, priority 2014, dated 2019):

Test system: Anti-β-1,6-Glucan IgG antibodies (affinity purified from IVIG, Baxter)
Assay: ELISA: binding of oligosaccharides to anti-β-1,6-glucan antibodies; note: key: a plus (+) sign indicates that the glucan was active in the assay; a minus (−) sign indicates that the glucan was not active; the '+/−' symbol indicates inconclusive results
Settings: plate coated with oligosaccharide in PBS; 40 ug/mL anti-Beta 1,6 Glucan IgG; anti-human IgG-HRP, TMB, absorbance at 620 nm
Experimental: Binding of oligosaccharides to anti-β-1,6-glucan antibodies is performed as described in the following protocol.
• 1. […] Anti-β-1,6-Glucan IgG antibodies (affinity purified from IVIG, Baxter) • 6. […] PBS-Tween buffer (PH 7.2, 0.05% Tween 20, Kpl cat #51-12-01) II. Method: Detection of Anti-Beta Glucan IgG by ELISA • 1. Coat plate with oligosaccharides in PBS overnight at 4° C. • 2. Wash 3 times with 250 uL of PBS-Tween • 3. Empty plate • 4. Block plate with 200 uL of Casein for 1 hour at room temperature • 5. Empty plate • 6. Add 40 ug/mL anti-Beta 1,6 Glucan IgG (4 ug/well) in Casein • 7. Incubate for 45 min at room temperature • 8. Wash 3 times with 250 uL of PBS-Tween • 9. Empty plate • 10. Add detection antibody: anti-human IgG-HRP at 1:5000—in casein. Incubate for 45 min at room temperature in the dark • 11. Wash 5 times with 250 uL of PBS-Tween • 12. Empty plate • 13. Add 100 uL of one step ultra TMB • 14. Measure the absorbance at 620 nm every 1 min for 60 min Tables 1-3 provide ELISA assay data for certain glucan compounds.

Row | Compound | ELISA assay data: glucan active in detection of anti-beta glucan IgG
1 | O=C(O)C1CCN(CC(O)[C@@H](O)[C@H](O)[C@H](O)CO[C@@H]2O[C@H](CO[C@@H]3O[C@H](CO[C@@H]4O[C@H](CO[C@@H]5O[C@H](CO)[C@@H](O)[C@H](O)[C@H]5O)[C@@H](O)[C@H](O)[C@H]4O)[C@@H](O)[C@H](O)[C@H]3O)[C@@H](O)[C@H](O)[C@H]2O)C1 (mixture of isomers) [3-pyrrolidineCO2H, n=4] | +
2 | [N-]=[N+]=NCCOC1OC(COC2OC(COC3OC(COC4OC(COC5OC(COC6OC(COC7OC(COC8OC(COC9OC(CO)C(O)C(O)C9O)C(O)C(O)C8O)C(O)C(O)C7O)C(O)C(O)C6O)C(O)C(O)C5O)C(O)C(O)C4O)C(O)C(O)C3O)C(O)C(O)C2O)C(O)C(O)C1O (stereo not drawn) [α-O(CH2)2N3, n=9] | +
3 | CN(CCCCCN)CC(O)[C@@H](O)[C@H](O)[C@H](O)CO[C@@H]1O[C@H](CO[C@@H]2O[C@H](CO[C@@H]3O[C@H](CO)[C@@H](O)[C@H](O)[C@H]3O)[C@@H](O)[C@H](O)[C@H]2O)[C@@H](O)[C@H](O)[C@H]1O (mixture of isomers) [N(Me),N(CH2)5NH2, n=3] | +
4 | 3,5-bis(1-[2-[O-β-D-glucopyranosyl-(1→6)-O-β-D-glucopyranosyl-(1→6)-O-β-D-glucopyranosyl-(1→6)-α-D-glucopyranosyl]oxy]ethyl-1H-1,2,3-triazol-4-yl)methoxybenzoic acid [(β-D-glucopyanosy1-1,6)nα-O(CH2)2-, n=4] | +
5 | O=CCCCCO[C@@H]1O[C@H](CO[C@@H]2O[C@H](CO[C@@H]3O[C@H](CO[C@@H]4O[C@H](CO)[C@@H](O)[C@H](O)[C@H]4O)[C@@H](O)[C@H](O)[C@H]3O)[C@@H](O)[C@H](O)[C@H]2O)[C@@H](O)[C@H](O)[C@H]1O [β-O(CH2)4C═O, n=4, 1-O-[4-oxybutoxy]-6-O—[O-β-D-glucopyranosyl-(1,6)]3-β-D-glucopyranoside] | +
6 | COC1O[C@H](CO[C@@H]2O[C@H](CO[C@@H]3O[C@H](CO)[C@@H](O)[C@H](O)[C@H]3O)[C@@H](O)[C@H](O)[C@H]2O)[C@@H](O)[C@H](O)[C@H]1O (stereo partly drawn) [OCH3, n=3, methyl [O-β-D-glucopyranosyl-1,6]2-D-glucopyranoside] | +
7 | OC[C@H]1O[C@@H](OC[C@H]2O[C@@H](OC[C@H]3O[C@@H](OC[C@H]4O[C@@H](OC[C@H]5O[C@@H](OC[C@H]6O[C@@H](OC[C@H]7O[C@@H](OC[C@H]8O[C@H](OCCCl)[C@H](O)[C@@H](O)[C@@H]8O)[C@H](O)[C@@H](O)[C@@H]7O)[C@H](O)[C@@H](O)[C@@H]6O)[C@H](O)[C@@H](O)[C@@H]5O)[C@H](O)[C@@H](O)[C@@H]4O)[C@H](O)[C@@H](O)[C@@H]3O)[C@H](O)[C@@H](O)[C@@H]2O)[C@H](O)[C@@H](O)[C@@H]1O [α-O(CH2)2Cl, n=8, 2-chloroethyl [O-β-D-glucopyranosyl-1,6]7-D-glucopyranoside] | +
8 | COC1O[C@H](CO[C@@H]2O[C@H](CO[C@@H]3O[C@H](CO[C@@H]4O[C@H](CO[C@@H]5O[C@H](CO[C@@H]6O[C@H](CO[C@@H]7O[C@H](CO[C@@H]8O[C@H](CO)[C@@H](O)[C@H](O)[C@H]8O)[C@@H](O)[C@H](O)[C@H]7O)[C@@H](O)[C@H](O)[C@H]6O)[C@@H](O)[C@H](O)[C@H]5O)[C@@H](O)[C@H](O)[C@H]4O)[C@@H](O)[C@H](O)[C@H]3O)[C@@H](O)[C@H](O)[C@H]2O)[C@@H](O)[C@H](O)[C@H]1O (stereo partly drawn) [OCH3, n=8, methyl [O-β-D-glucopyranosyl-1,6]7-D-glucopyranoside] | +
9 | O=C(O)C1CCN(CC(O)[C@@H](O)[C@H](O)[C@H](O)CO[C@@H]2O[C@H](CO[C@@H]3O[C@H](CO[C@@H]4O[C@H](CO[C@@H]5O[C@H](CO[C@@H]6O[C@H](CO)[C@@H](O)[C@H](O)[C@H]6O)[C@@H](O)[C@H](O)[C@H]5O)[C@@H](O)[C@H](O)[C@H]4O)[C@@H](O)[C@H](O)[C@H]3O)[C@@H](O)[C@H](O)[C@H]2O)C1 (mixture of isomers) [3-pyrrolidineCO2H, n=5] | +
10 | O=C(O)C1CCN(CC(O)[C@@H](O)[C@H](O)[C@H](O)CO[C@@H]2O[C@H](CO[C@@H]3O[C@H](CO[C@@H]4O[C@H](CO[C@@H]5O[C@H](CO)[C@@H](O)[C@H](O)[C@H]5O)[C@@H](O)[C@H](O)[C@H]4O)[C@@H](O)[C@H](O)[C@H]3O)[C@@H](O)[C@H](O)[C@H]2O)CC1 (mixture of isomers) [4-piperidineCO2H, n=4] | +
11 | CN(CCCCCN)CC(O)[C@@H](O)[C@H](O)[C@H](O)CO[C@@H]1O[C@H](CO[C@@H]2O[C@H](CO[C@@H]3O[C@H](CO[C@@H]4O[C@H](CO[C@@H]5O[C@H](CO)[C@@H](O)[C@H](O)[C@H]5O)[C@@H](O)[C@H](O)[C@H]4O)[C@@H](O)[C@H](O)[C@H]3O)[C@@H](O)[C@H](O)[C@H]2O)[C@@H](O)[C@H](O)[C@H]1O (mixture of isomers) [N(Me),N(CH2)5NH2, n=5] | +
12 | [N-]=[N+]=NCCOC1OC(COC2OC(COC3OC(COC4OC(COC5OC(CO)C(O)C(O)C5O)C(O)C(O)C4O)C(O)C(O)C3O)C(O)C(O)C2O)C(O)C(O)C1O (stereo not drawn) [α-O(CH2)2N3, n=5] | +
13 | COC1O[C@H](CO[C@@H]2O[C@H](CO[C@@H]3O[C@H](CO[C@@H]4O[C@H](CO[C@@H]5O[C@H](CO)[C@@H](O)[C@H](O)[C@H]5O)[C@@H](O)[C@H](O)[C@H]4O)[C@@H](O)[C@H](O)[C@H]3O)[C@@H](O)[C@H](O)[C@H]2O)[C@@H](O)[C@H](O)[C@H]1O (stereo partly drawn) [OCH3, n=5, methyl [O-β-D-glucopyranosyl-1,6-]4-D-glucopyranoside] | +
14 | N-[6-[(O-(β-D-glucopyranosyl-(1,6))4-β-D-glucopyranosyl](2RS,3R,4R,5R)-2,3,4,5-tetrahydroxyhexyl]-4-piperidylacetic acid [4-piperidine(CH2)CO2H, n=5] | +
15 | [N-]=[N+]=NCCO[C@@H]1O[C@H](CO[C@@H]2O[C@H](CO[C@@H]3O[C@H](CO[C@@H]4O[C@H](CO)[C@@H](O)[C@H](O)[C@H]4O)[C@@H](O)[C@H](O)[C@H]3O)[C@@H](O)[C@H](O)[C@H]2O)[C@@H](O)[C@H](O)[C@H]1O (stereo in doubt) [β-O(CH2)2N3, n=4, 2-Azido ethyl [O-β-D-glucopyranosyl-1,6]3-β-D-glucopyranoside] | +
16 | N#C[C@H](O[C@@H]1O[C@H](CO[C@@H]2O[C@H](CO)[C@@H](O)[C@H](O)[C@H]2O)[C@@H](O)[C@H](O)[C@H]1O)c1ccccc1 [β-OCH(CN)Ph, n=2, amygdalin, reference compound] | −
17 | COC1O[C@H](CO[C@@H]2O[C@H](CO[C@@H]3O[C@H](CO[C@@H]4O[C@H](CO[C@@H]5O[C@H](CO[C@@H]6O[C@H](CO[C@@H]7O[C@H](CO)[C@@H](O)[C@H](O)[C@H]7O)[C@@H](O)[C@H](O)[C@H]6O)[C@@H](O)[C@H](O)[C@H]5O)[C@@H](O)[C@H](O)[C@H]4O)[C@@H](O)[C@H](O)[C@H]3O)[C@@H](O)[C@H](O)[C@H]2O)[C@@H](O)[C@H](O)[C@H]1O (stereo partly drawn) [OCH3, n=7, methyl [O-β-D-glucopyranosyl-1,6]6-D-glucopyranoside] | +
18 | CN(Cc1ccc(C(=O)O)cc1)CC(O)[C@@H](O)[C@H](O)[C@H](O)CO[C@@H]1O[C@H](CO[C@@H]2O[C@H](CO[C@@H]3O[C@H](CO[C@@H]4O[C@H](CO)[C@@H](O)[C@H](O)[C@H]4O)[C@@H](O)[C@H](O)[C@H]3O)[C@@H](O)[C@H](O)[C@H]2O)[C@@H](O)[C@H](O)[C@H]1O (mixture of isomers) [N(Me),N(CH2)4-BzOH, n=4] | +
19 | 1-O-[2-(2-oxymethoxy)ethoxy]-6-O—[O-β-D-glucopyranosyl-(1,6)]3-β-D-glucopyranoside [β-O(CH2)2O(CH2)2C═O, n=4] | +
20 | O=C(O)c1cc(OCc2cn(CCO[C@@H]3O[C@H](CO[C@@H]4O[C@H](CO[C@@H]5O[C@H](CO[C@@H]6O[C@H](CO[C@@H]7O[C@H](CO)[C@@H](O)[C@H](O)[C@H]7O)[C@@H](O)[C@H](O)[C@H]6O)[C@@H](O)[C@H](O)[C@H]5O)[C@@H](O)[C@H](O)[C@H]4O)[C@@H](O)[C@H](O)[C@H]3O)nn2)cc(OCc2cn(CCO[C@@H]3O[C@H](CO[C@@H]4O[C@H](CO[C@@H]5O[C@H](CO[C@@H]6O[C@H](CO[C@@H]7O[C@H](CO)[C@@H](O)[C@H](O)[C@H]7O)[C@@H](O)[C@H](O)[C@H]6O)[C@@H](O)[C@H](O)[C@H]5O)[C@@H](O)[C@H](O)[C@H]4O)[C@@H](O)[C@H](O)[C@H]3O)nn2)c1 [(β-D-glucopyanosy1-1,6)nβ-O(CH2)2-, n=5, 3,5-bis(1[2-[O-β-D-glucopyranosyl-(1→6)]5oxy]ethyl-1H-1,2,3-triazol-4-yl)methoxybenzoic acid] | +
21 | OCC1OC(OCC2OC(OCC3OC(OCC4OC(O)C(O)C(O)C4O)C(O)C(O)C3O)C(O)C(O)C2O)C(O)C(O)C1O (stereo not drawn) [OH, n=4] | +
